The results in this text go back to US7977481B2, “Pyrimidinyl-thiophene kinase modulators” (SGX Pharmaceuticals, Inc., priority 2005, dated 2011).

The experiment concerns the target T1, MET kinase (Homo sapiens, UniProt P08581).
T1 construct: expressing the kinase domain of human Met; 6x Histidine tag (cleaved yes); made in house; host or cells: Sf9 insect cells
Briefly: MET Luminescence-Based ATP Depletion Enzyme Assay. The format is biochemical. As to conditions: 10 μM ATP. On the procedure: MET Luminescence-Based ATP Depletion Enzyme Assay
Materials: Poly Glu-Tyr (4:1) substrate (Sigma Cat#P-0275), ATP (Sigma Cat#A-3377, FW=551), HEPES buffer, pH 7.5, Bovine serum albumin (BSA) (Roche 92423420), MgCl2, Staurosporine (Streptomyces sp. Sigma Cat#85660-1MG), white Costar 384-well flat-bottom plate (VWR Cat#29444-088). MET kinase (see below), Kinase-Glo™ (Promega Cat#V6712).
Stock Solutions: 10 mg/ml poly Glu-Tyr in water, stored at −20° C.; 100 mM HEPES buffer, pH 7.5 (5 ml 1M stock+45 ml miliQH2O); 10 mM ATP (5.51 mg/ml in dH2O) stored at −20° C. (diluted 50 μl into total of 10 ml miliQH2O daily=50 μM ATP working stock); 1% BSA (1 g BSA in 100 ml 0.1M HEPES, pH 7.5, stored at −20° C.), 100 mM MgCl2; 200 μM Staurosporine, 2× Kinase-Glo™ reagent (made fresh or stored at −20° C.).
Standard Assay Setup for 384-well format (20 μl kinase reaction, 40 μl detection reaction): 10 mM MgCl2; 0.3 mg/ml poly Glu-Tyr; 0.1% BSA; 1 μl test compound (in DMSO); 0.4 μg/ml MET kinase; 10 μM ATP; 100 mM HEPES buffer. Positive controls contained DMSO with no test compound. Negative controls contained 10 μM staurosporine. The kinase reactions were initiated at time t=0 by the addition of ATP. Kinase reactions were incubated at 21° C. for 60 min, then 20 μl of Kinase-Glo™ reagent were added to each well to quench the kinase reaction and initiate the luminescence reaction. After a 20 min incubation at 21° C., the luminescence was detected in a plate-reading luminometer.
The cell pellets produced from half of a 12 L Sf9 insect cell culture expressing the kinase domain of human Met were resuspended in a buffer containing 50 mM Tris-HCl pH 7.7 and 250 mM NaCl, in a volume of approximately 40 ml per 1 L of original culture. One tablet of Roche Complete, EDTA-free protease inhibitor cocktail (Cat#1873580) was added per 1 L of original culture. The suspension was stirred for 1 hour at 4° C. Debris was removed by centrifugation for 30 minutes at 39,800×g at 4° C. The supernatant was decanted into a 500 ml beaker and 10 ml of 50% slurry of Qiagen Ni-NTA Agarose (Cat#30250) that had been pre-equilibrated in 50 mM Tris-HCl pH 7.8, 50 mM NaCl, 10% Glycerol, 10 mM Imidazole, and 10 mM Methionine, were added and stirred for 30 minutes at 4° C. The sample was then poured into a drip column at 4° C. and washed with 10 column volumes of 50 mM Tris-HCl pH 7.8, 500 mM NaCl, 10% Glycerol, 10 mM Imidazole, and 10 mM Methionine. The protein was eluted using a step gradient with two column volumes each of the same buffer containing 50 mM, 200 mM, and 500 mM Imidazole, sequentially. The 6× Histidine tag was cleaved overnight using 40 units of TEV protease (Invitrogen Cat#10127017) per 1 mg of protein while dialyzing in 50 mM Tris-HCl pH 7.8, 500 mM NaCl, 10% Glycerol, 10 mM Imidazole, and 10 mM Methionine at 4° C. The 6× Histidine tag was removed by passing the sample over a Pharmacia 5 ml IMAC column (Cat#17-0409-01) charged with Nickel and equilibrated in 50 mM Tris-HCl pH 7.8, 500 mM NaCl, 10% Glycerol, 10 mM Imidazole, and 10 mM Methionine. The cleaved protein bound to the Nickel column at a low affinity and was eluted with a step gradient. The step gradient was run with 15% and then 80% of the B-side (A-side=50 mM Tris-HCl pH 7.8, 500 mM NaCl, 10% Glycerol, 10 mM Imidazole, and 10 mM Methionine; B-side=50 mM Tris-HCl pH 7.8, 500 mM NaCl, 10% Glycerol, 500 mM Imidazole, and 10 mM Methionine) for 4 column volumes each. The Met protein eluted in the first step (15%), whereas the non-cleaved Met and the cleaved Histidine tag eluted in the 80% fractions. The 15% fractions were pooled after SDS-PAGE gel analysis confirmed the presence of cleaved Met; further purification was done by gel filtration chromatography on an Amersham Biosciences HiLoad 16/60 Superdex 200 prep grade (Cat#17-1069-01) equilibrated in 50 mM Tris-HCl pH 8.5, 150 mM NaCl, 10% Glycerol and 5 mM DTT. […]

pIC50: −log10 of the molar value.

T1 sequence (P08581 1078-1345 limits assumed): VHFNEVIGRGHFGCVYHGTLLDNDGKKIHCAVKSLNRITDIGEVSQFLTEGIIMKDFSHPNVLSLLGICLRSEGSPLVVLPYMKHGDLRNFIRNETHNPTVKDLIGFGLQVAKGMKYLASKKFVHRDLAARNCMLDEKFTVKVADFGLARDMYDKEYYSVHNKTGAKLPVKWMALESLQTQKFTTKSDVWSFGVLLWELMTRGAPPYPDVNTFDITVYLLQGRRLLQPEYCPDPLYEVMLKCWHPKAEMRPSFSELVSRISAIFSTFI

For the compound `C[C@@H](NC(=O)c1ccc(-c2ccnc(Nc3cccc(CN4CCN(CCO)CC4)c3)n2)s1)c1ccccc1`, the pIC50 (as a rule, the IC50 on a negative log10 scale, so that one unit is a factor of ten) was greater than 6.00.

`O=C(NCc1ccccc1)c1ccc(-c2ccnc(Nc3ccc(CCO)cc3)n2)s1` showed a pIC50 of 5.30 to 6.00.

`CCN(CCC#N)S(=O)(=O)c1ccc(-c2ccnc(Nc3cccc(C(C)O)c3)n2)s1` (stereo not shown) showed a pIC50 greater than 6.00.

Consider `CN(C)C(=O)c1cccc(Nc2nccc(-c3ccc(Br)s3)n2)c1`, for which the pIC50 is 5.30 to 6.00.

On to `CC(O)c1cccc(Nc2nccc(-c3ccc(S(=O)(=O)N(C)C)s3)n2)c1` (stereo not shown), for which the pIC50 is 5.30 to 6.00.

`CCN(CCC#N)S(=O)(=O)c1ccc(-c2ccnc(Nc3cccc(C)c3)n2)s1`: the pIC50 is greater than 6.00.

Take `C[C@@H](NC(=O)c1ccc(-c2ccnc(Nc3cccc(CN4CCC(O)CC4)c3)n2)s1)c1ccccc1`: the pIC50 is greater than 6.00.

`CCC(=O)Nc1ccc(-c2ccnc(Nc3cccc(C)c3)n2)s1` showed a pIC50 of 5.30 to 6.00.

The compound `Brc1ccc(-c2ccnc(Nc3cccc(CN4CCOCC4)c3)n2)s1` gave a negative-log IC50 (pIC50) of 5.30 to 6.00.

As for `CCC1CCCCN1S(=O)(=O)c1ccc(-c2ccnc(Nc3cccc(C(C)O)c3)n2)s1` (stereo not shown), the pIC50 is greater than 6.00.

`COc1ccc(Nc2nccc(-c3ccc(Br)s3)n2)cc1OC` showed a pIC50 of 5.30 to 6.00.

`COc1ccc(Nc2nccc(-c3ccc(Br)s3)n2)cc1C(=O)N(C)C` showed a pIC50 of 5.30 to 6.00.

The compound `O=C(c1cccc(Nc2nccc(-c3ccc(Br)s3)n2)c1)N1CCN(CCO)CC1` had a pIC50 of 5.30 to 6.00.

The compound `OC1CCN(Cc2cccc(Nc3nccc(-c4ccc(CNc5ccccc5Cl)s4)n3)c2)CC1` gave a pIC50 of 5.30 to 6.00.

For the compound `CC(O)c1cccc(Nc2nccc(-c3ccc(S(=O)(=O)Cc4ccccc4)s3)n2)c1` (stereo not shown), the pIC50 was greater than 6.00.

For `CC(O)c1cccc(Nc2nccc(-c3ccc(-c4cccnc4)s3)n2)c1` (stereo not shown), the pIC50 was 5.30 to 6.00.
